In EP1947089A1, “A-polymorph of a substituted pyrazoline, its preparation and use as medicaments” (Laboratorios del Dr. Esteve S.A., priority 2007, dated 2008):

Legend:
Herg channel = Herg channel (Homo sapiens, UniProt Q12809); test: Herg channel affinity; type: binding; details: general statement, no value given; low risk of QT prolongation expected
[1] = Behaviour of the solid form under pressure stress; type: physicochemical; details: 98 kN (98.07 kN), 13 mm diameter samples, 1, 5 and 30 minutes
Experimental: Samples of the a-Polymorph were submitted to pressure stress for various periods of time (1, 5 and 30 minutes) to investigate the effect of pressure on the solid form. The pressure (98kN) used was chosen to correspond to correspond to the pressure at which planar tablets, of a diameter between 10 and 15 mm, are made. […] Precisely, 13 mm diameter samples of the polymorph were submitted to 98.07 kN of pressure using a Specac press for 1, 5 and 30 minutes and analysed, with no difference.

[2] = Thermogravimetric (TG) analysis; type: physicochemical; details: 10°C/min between 30 and 600°C, under nitrogen; no weight loss at lower temperatures
Experimental: Thermogravimetric analyses (TGA) were recorded in a Mettler Toldo SDTA851 e. Samples of approximately 2 mg were weighted into open 40 µlalumina crucibles, and heated at 10°C/min between 30 and 600°C, under nitrogen (80 ml/min).

Herg channel, sequence (Q12809 whole entry): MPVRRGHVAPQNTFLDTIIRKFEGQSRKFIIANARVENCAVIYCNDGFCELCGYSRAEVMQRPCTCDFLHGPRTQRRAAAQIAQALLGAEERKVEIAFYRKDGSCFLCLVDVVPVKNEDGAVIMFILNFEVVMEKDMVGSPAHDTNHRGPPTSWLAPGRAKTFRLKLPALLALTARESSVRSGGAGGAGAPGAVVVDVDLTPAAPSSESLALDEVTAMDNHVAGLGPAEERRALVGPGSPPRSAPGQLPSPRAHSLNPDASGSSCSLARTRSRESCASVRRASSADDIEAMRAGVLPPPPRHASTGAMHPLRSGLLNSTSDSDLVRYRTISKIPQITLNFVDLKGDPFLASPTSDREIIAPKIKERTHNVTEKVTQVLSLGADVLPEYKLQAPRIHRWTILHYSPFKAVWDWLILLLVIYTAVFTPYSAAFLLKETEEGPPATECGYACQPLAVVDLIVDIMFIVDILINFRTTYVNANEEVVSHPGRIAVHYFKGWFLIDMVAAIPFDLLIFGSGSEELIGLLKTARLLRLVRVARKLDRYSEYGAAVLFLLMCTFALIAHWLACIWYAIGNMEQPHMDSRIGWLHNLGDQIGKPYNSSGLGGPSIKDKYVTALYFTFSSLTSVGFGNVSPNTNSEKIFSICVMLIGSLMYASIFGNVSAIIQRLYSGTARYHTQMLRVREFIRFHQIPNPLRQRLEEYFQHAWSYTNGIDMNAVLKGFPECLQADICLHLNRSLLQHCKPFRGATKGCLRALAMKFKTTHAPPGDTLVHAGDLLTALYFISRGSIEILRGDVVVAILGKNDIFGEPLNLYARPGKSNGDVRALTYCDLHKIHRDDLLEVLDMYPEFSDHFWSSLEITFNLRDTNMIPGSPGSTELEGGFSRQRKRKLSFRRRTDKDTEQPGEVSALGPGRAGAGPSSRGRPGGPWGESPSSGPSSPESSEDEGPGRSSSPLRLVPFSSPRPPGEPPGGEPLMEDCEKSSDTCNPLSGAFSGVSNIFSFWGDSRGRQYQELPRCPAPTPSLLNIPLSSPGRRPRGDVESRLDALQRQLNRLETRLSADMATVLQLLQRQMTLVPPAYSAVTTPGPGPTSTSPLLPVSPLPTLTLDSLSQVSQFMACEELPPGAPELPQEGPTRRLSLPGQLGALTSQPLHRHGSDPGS

Row | Structure (SMILES) | Herg channel affinity (Herg channel) | effect of pressure on the solid form (phase change) [1] | temperature of weight loss due to decomposition (TG analysis) [2]
1 | O=C(NN1CCCCC1)C1=NN(c2ccc(Cl)cc2Cl)C(c2ccc(Cl)cc2)C1 (racemic) [COMPOUND C, N-piperidinyl-5-(4-chlorophenyl)-1-(2,4-dichlorophenyl)-4,5-dihydro-1H-pyrazole-3-carboxamide] | relatively weak |  | 
2 | O=C(NN1CCCCC1)C1=NN(c2ccc(Cl)cc2Cl)C(c2ccc(Cl)cc2)C1 (racemic) [α-Polymorph, α-Polymorph of N-piperidinyl-5-(4-chlorophenyl)-1-(2,4-dichlorophenyl)-4,5-dihydro-1H-pyrazole-3-carboxamide] |  | did not induce any phase change | higher than 280 °C
